In PMC6023893, “Glutamic acid–valine–citrulline linkers ensure stability and efficacy of antibody–drug conjugates in mice” (Nature Communications, 2018):
Numbered stars: 1 amine (or outer) side, 2 acyl side, 3 side chain; on linkers, the order of the positions; unused ones are H or OH. Square brackets hold non-standard residues; d marks the D form. Peptide text beside a SMILES is read from it. * marks the point of attachment. Dolaproine = CO[C@@H]([C@@H]1CCCN1)[C@@H](C)C(=O)O; NHCH2(1-pyrenyl) = c1cc2ccc3ccc(CN*)c4ccc(c1)c2c34; Dil = CC[C@H](C)[C@H](NC)[C@@H](CC(=O)O)OC; PABC = O=C(OCc1ccc(N[*:1])cc1)[*:2]; X1 = C[C@@H](N*)[C@@H](O)c1ccccc1; Cit = NC(=O)NCCC[CH](N)C(=O)O; NMeV = CN[C@H](C(=O)O)C(C)C; Glycolyl = O=C(CO)*; Sar = CNCC(=O)O

Tests used:
[1] = ref US8512707B2; cited from earlier work
in vitro = in vitro ADME; conditions: BALB/c, mouse, plasma
Description: Each test compound (10 mM in DMSO, 2 µL) was mixed with 1 µL of 1-pyrenemethylamine (10 mM in DMSO, internal standard) and incubated at 37 °C for 10 min. Pre-warmed human plasma pooled from healthy donors or BALB/c mouse plasma (197 µL, Innovative Research) was added to the mixture, followed by incubation at 37 °C. Aliquots (10 µL) were collected at each time point (0, 1, 6, 24, 48, and 96 h) and 40 µL of cold acetonitrile containing 1% formic acid was added to precipitate proteins. Supernatant of each sample was obtained and analyzed for quantification by analytical HPLC as described above. All assays were performed in triplicate.

human liver cathepsin B = target: T1, human liver cathepsin B (Homo sapiens, UniProt P07858); assay: Cathepsin B-mediated cleavage assay using pyrene probes; format: biochemical; conditions: 37 °C, pH 5.0
T1 construct: Pre-warmed human liver cathepsin B (20 ng µL^–1, EMD Millipore); purchased EMD Millipore; host or cells: human liver (tissue-derived, as named)
Description: Each test compound (10 mM in DMSO, 2 µL) was mixed with 97 µL of MES buffer (25 mM MES-Na, 1 mM DTT, pH 5.0) and 1 µL of 1-pyrenemethylamine (10 mM in DMSO, internal standard). The mixture was incubated at 37 °C for 10 min. Pre-warmed human liver cathepsin B (20 ng µL^–1, EMD Millipore) in 100 µL MES buffer was added to the mixture, followed by incubation at 37 °C. Aliquots (10 µL) were collected at each time point (0, 0.5, 1, 3, 24, and 48 h). Cold acetonitrile containing 1% formic acid (40 µL) was added to precipitate proteins. Precipitated proteins were separated by centrifugation (15,000 × g, 4 °C, 30 min) and supernatant of each sample was analyzed for quantification by analytical HPLC (UV absorption at 342 nm). The amount of each probe was normalized to the peak area of the internal standard. All assays were performed at least three times in technical duplicate, and data shown are representative of the replicates.

Structure (SMILES) | maximum tolerated dose (MTD) [1] [mg/kg] | half-life at 100 µM (in vitro) [h] | Cathepsin B-mediated cleavage rate of probes (human liver cathepsin B)
CC[C@H](C)[C@@H]([C@@H](CC(=O)N1CCC[C@H]1[C@H](OC)[C@@H](C)C(=O)N[C@H](C)[C@@H](O)c1ccccc1)OC)N(C)C(=O)[C@@H](NC(=O)[C@@H](NC)C(C)C)C(C)C [MMAE, monomethyl auristatin E] (H-[NMeV]V[Dil][Dolaproine]-X1) | 1 |  | 
CC(C)C(NC(=O)CNC(=O)CO)C(=O)NC(CCCNC(N)=O)C(=O)Nc1ccc(COC(=O)N(C)CC(=O)NCc2ccc3ccc4cccc5ccc2c3c45)cc1 (centres unmarked) [probe 1f] (Glycolyl-GV[Cit][PABC][Sar]-{NHCH2(1-pyrenyl)}; configuration not given here) |  | 5 | 
CC(=O)NC(C(=O)NC(CCCNC(N)=O)C(=O)Nc1ccc(COC(=O)N(C)CC(=O)NCc2ccc3ccc4cccc5ccc2c3c45)cc1)C(C)C (centres unmarked) [probe 1a] |  | 2.3 | 
CC(=O)NC(CO)C(=O)NC(C(=O)NC(CCCNC(N)=O)C(=O)Nc1ccc(COC(=O)N(C)CC(=O)NCc2ccc3ccc4cccc5ccc2c3c45)cc1)C(C)C (centres unmarked) [probe 1b] (Ac-SV[Cit][PABC][Sar]-{NHCH2(1-pyrenyl)}; configuration not given here) |  | 3.1 | cleavage rate comparable with that of VCit probe 1a
CC(=O)NC(CCCCN)C(=O)NC(C(=O)NC(CCCNC(N)=O)C(=O)Nc1ccc(COC(=O)N(C)CC(=O)NCc2ccc3ccc4cccc5ccc2c3c45)cc1)C(C)C (centres unmarked) [probe 1e] (Ac-KV[Cit][PABC][Sar]-{NHCH2(1-pyrenyl)}; configuration not given here) |  | 0.9 | 
CC(=O)NC(CCC(=O)O)C(=O)NC(C(=O)NC(CCCNC(N)=O)C(=O)Nc1ccc(COC(=O)N(C)CC(=O)NCc2ccc3ccc4cccc5ccc2c3c45)cc1)C(C)C (centres unmarked) [probe 1c] (Ac-EV[Cit][PABC][Sar]-{NHCH2(1-pyrenyl)}; configuration not given here) |  | 19.1 | 
CC(=O)NC(CC(=O)O)C(=O)NC(C(=O)NC(CCCNC(N)=O)C(=O)Nc1ccc(COC(=O)N(C)CC(=O)NCc2ccc3ccc4cccc5ccc2c3c45)cc1)C(C)C (centres unmarked) [probe 1d] (Ac-DV[Cit][PABC][Sar]-{NHCH2(1-pyrenyl)}; configuration not given here) |  | 14 | 
